Active and inactive are the calls of the source. The rule behind the calls is not given here.
Columns and labels:
[1] = tested on: Mus musculus; assay: Anticonvulsant activity in ip dosed Carworth farms No.1 albino mouse assessed as protection against subcutaneous metrazole-induced seizures; type: functional
[2] = tested on: Mus musculus; assay: Anticonvulsant activity in ip dosed Carworth farms No.1 albino mouse assessed as protection against maximum electroshock; type: functional
[3] = species: Mus musculus; assay: Anticonvulsant activity in maximum electroshock-induced Carworth farms No.1 albino mouse assessed as time of peak effect; type: functional
[4] = tested on: Mus musculus; assay: Neurotoxicity in Carworth farms No.1 albino mouse assessed as neurological impairment at 100 mg/kg, ip measured after 0.25 hrs; type: toxicity, organism-based; design: dose 100 mg/kg, route intraperitoneal; conditions: in vivo
[5] = tested on: Mus musculus; assay: Anticonvulsant activity in Carworth farms No.1 albino mouse assessed as protection against 6 Hz electric current-induced seizure at 100 mg/kg, ip measured after 2 hrs; type: functional, organism-based; design: dose 100 mg/kg
[6] = tested on: Mus musculus; assay: Anticonvulsant activity in Carworth farms No.1 albino mouse assessed as protection against maximum electroshock at 300 mg/kg, ip measured after 4 hrs; type: functional, organism-based; design: dose 300 mg/kg
[7] = tested on: Mus musculus; assay: Anticonvulsant activity in Carworth farms No.1 albino mouse assessed as protection against maximum electroshock at 100 mg/kg, ip measured after 4 hrs; type: functional, organism-based; design: dose 100 mg/kg
[8] = tested on: Mus musculus; assay: Anticonvulsant activity in Carworth farms No.1 albino mouse assessed as protection against 6 Hz electric current-induced seizure at 100 mg/kg, ip measured after 4 hrs; type: functional, organism-based; design: dose 100 mg/kg
[9] = tested on: Mus musculus; assay: Neurotoxicity in Carworth farms No.1 albino mouse assessed as neurological impairment at 300 mg/kg, ip measured after 4 hrs; type: toxicity, organism-based; design: dose 300 mg/kg, route intraperitoneal; conditions: in vivo
[10] = tested on: Mus musculus; assay: Anticonvulsant activity in Carworth farms No.1 albino mouse assessed as protection against maximum electroshock at 100 mg/kg, ip measured after 0.5 hrs; type: functional, organism-based; design: dose 100 mg/kg
[11] = tested on: Mus musculus; assay: Neurotoxicity in Carworth farms No.1 albino mouse assessed as neurological impairment at 30 mg/kg, ip measured after 4 hrs; type: toxicity, organism-based; design: dose 30 mg/kg, route intraperitoneal; conditions: in vivo
[12] = tested on: Mus musculus; assay: Neurotoxicity in Carworth farms No.1 albino mouse assessed as neurological impairment at 100 mg/kg, ip measured after 4 hrs; type: toxicity, organism-based; design: dose 100 mg/kg, route intraperitoneal; conditions: in vivo
[13] = tested on: Mus musculus; assay: Anticonvulsant activity in Carworth farms No.1 albino mouse assessed as protection against 6 Hz electric current-induced seizure at 100 mg/kg, ip measured after 1 hrs; type: functional, organism-based; design: dose 100 mg/kg
[14] = tested on: Mus musculus; assay: Neurotoxicity in Carworth farms No.1 albino mouse assessed as neurological impairment at 100 mg/kg, ip measured after 0.5 hrs; type: toxicity, organism-based; design: dose 100 mg/kg, route intraperitoneal; conditions: in vivo
[15] = tested on: Mus musculus; assay: Anticonvulsant activity in Carworth farms No.1 albino mouse assessed as protection against maximum electroshock at 30 mg/kg, ip measured after 0.5 hrs; type: functional, organism-based; design: dose 30 mg/kg
[16] = tested on: Mus musculus; assay: Anticonvulsant activity in Carworth farms No.1 albino mouse assessed as protection against subcutaneous metrazole-induced seizures at 30 mg/kg, ip measured after 4 hrs; type: functional, organism-based; design: dose 30 mg/kg
[17] = tested on: Mus musculus; assay: Neurotoxicity in Carworth farms No.1 albino mouse assessed as neurological impairment at 100 mg/kg, ip measured after 1 hr; type: toxicity, organism-based; design: dose 100 mg/kg, route intraperitoneal; conditions: in vivo
[18] = tested on: Mus musculus; assay: Neurotoxicity in Carworth farms No.1 albino mouse assessed as neurological impairment at 100 mg/kg, ip measured after 2 hr; type: toxicity, organism-based; design: dose 100 mg/kg, route intraperitoneal; conditions: in vivo
[19] = tested on: Mus musculus; assay: Neurotoxicity in Carworth farms No.1 albino mouse assessed as neurological impairment at 30 mg/kg, ip measured after 0.5 hrs; type: toxicity, organism-based; design: dose 30 mg/kg, route intraperitoneal; conditions: in vivo
[20] = tested on: Mus musculus; assay: Anticonvulsant activity in Carworth farms No.1 albino mouse assessed as protection against maximum electroshock at 300 mg/kg, ip measured after 0.5 hrs; type: functional, organism-based; design: dose 300 mg/kg
[21] = tested on: Mus musculus; assay: Anticonvulsant activity in Carworth farms No.1 albino mouse assessed as protection against subcutaneous metrazole-induced seizures at 30 mg/kg, ip measured after 0.5 hrs; type: functional, organism-based; design: dose 30 mg/kg
[22] = tested on: Mus musculus; assay: Anticonvulsant activity in Carworth farms No.1 albino mouse assessed as protection against 6 Hz electric current-induced seizure at 100 mg/kg, ip measured after 0.5 hrs; type: functional, organism-based; design: dose 100 mg/kg
[23] = tested on: Mus musculus; assay: Anticonvulsant activity in Carworth farms No.1 albino mouse assessed as protection against subcutaneous metrazole-induced seizures at 100 mg/kg, ip measured after 4 hrs; type: functional, organism-based; design: dose 100 mg/kg
[24] = tested on: Mus musculus; assay: Anticonvulsant activity in Carworth farms No.1 albino mouse assessed as protection against subcutaneous metrazole-induced seizures at 300 mg/kg, ip measured after 0.5 hrs; type: functional, organism-based; design: dose 300 mg/kg
[25] = tested on: Mus musculus; assay: Anticonvulsant activity in Carworth farms No.1 albino mouse assessed as protection against maximum electroshock at 30 mg/kg, ip measured after 4 hrs; type: functional, organism-based; design: dose 30 mg/kg
[26] = tested on: Mus musculus; assay: Anticonvulsant activity in Carworth farms No.1 albino mouse assessed as protection against subcutaneous metrazole-induced seizures at 100 mg/kg, ip measured after 0.5 hrs; type: functional, organism-based; design: dose 100 mg/kg
[27] = tested on: Mus musculus; assay: Anticonvulsant activity in Carworth farms No.1 albino mouse assessed as protection against subcutaneous metrazole-induced seizures at 300 mg/kg, ip measured after 4 hrs; type: functional, organism-based; design: dose 300 mg/kg
[28] = tested on: Mus musculus; assay: Neurotoxicity in Carworth farms No.1 albino mouse assessed as neurological impairment at 300 mg/kg, ip measured after 0.5 hrs; type: toxicity, organism-based; design: dose 300 mg/kg, route intraperitoneal; conditions: in vivo
[29] = tested on: Mus musculus; assay: Anticonvulsant activity in Carworth farms No.1 albino mouse assessed as protection against 6 Hz electric current-induced seizure at 100 mg/kg, ip measured after 0.25 hrs; type: functional, organism-based; design: dose 100 mg/kg
[30] = tested on: Mus musculus; assay: Anticonvulsant activity in Carworth farms No.1 albino mouse assessed as protection against subcutaneous metrazole-induced seizures at 100 mg/kg, ip measured after 2 hrs; type: functional, organism-based; design: dose 100 mg/kg
[31] = tested on: Mus musculus; assay: Anticonvulsant activity in Carworth farms No.1 albino mouse assessed as protection against maximum electroshock at 100 mg/kg, ip measured after 2 hrs; type: functional, organism-based; design: dose 100 mg/kg
[32] = species: Mus musculus; assay: Anticonvulsant activity in electric shock-induced Carworth farms No.1 albino mouse assessed as time of peak effect; type: functional
[33] = tested on: Mus musculus; assay: Anticonvulsant activity in ip dosed Carworth farms No.1 albino mouse assessed as protection against 6 Hz electric current-induced seizure measured after 0.25 hrs; type: functional

Compound | Activity [4] | Activity [6] | Activity [7] | Activity [9] | Activity [10] | Activity [11] | Activity [12] | Activity [14] | Activity [15] | Activity [16] | Activity [17] | Activity [18] | Activity [19] | Activity [20] | Activity [21] | Activity [23] | Activity [24] | Activity [25] | Activity [26] | Activity [28] | further results
O=C1NC(=O)C(c2ccccc2)(c2ccccc2)N1 [PHENYTOIN] | – | – | – | – | – | – | – | – | – | – | – | – | – | – | – | – | – | – | – | – | ED50 [1]: > 50 mg/kg; ED50 [2]: 5.64 mg/kg; Time [3]: 1 h
O=C1[C@H]2CCCCN2[C@@H](c2ccccc2)C(=O)N1Cc1ccccc1 | Non-toxic | inactive | inactive | Non-toxic | inactive | Non-toxic | Non-toxic | Non-toxic | inactive | inactive | Non-toxic | Non-toxic | Non-toxic | inactive | inactive | inactive | inactive | inactive | inactive | Non-toxic | Activity [5]: inactive; Activity [8]: inactive; Activity [13]: inactive; Activity [22]: inactive; Activity [27]: inactive; Activity [29]: inactive
Cl.O=C1[C@H](c2ccccc2)N2CCCC[C@H]2C(=O)N1Cc1ccccc1 | – | Active | inactive | Non-toxic | inactive | Non-toxic | Non-toxic | Non-toxic | inactive | inactive | – | – | Non-toxic | inactive | inactive | inactive | inactive | inactive | inactive | Non-toxic | Activity [30]: Active; Activity [27]: inactive; Activity [31]: Active
CC[C@@H](C(N)=O)N1CCCC1=O [LEVETIRACETAM] | – | – | – | – | – | – | – | – | – | – | – | – | – | – | – | – | – | – | – | – | Time [32]: 1 h
O=C1CN2CCCC[C@H]2C(=O)N1 | Non-toxic | inactive | inactive | Non-toxic | inactive | Non-toxic | Non-toxic | Non-toxic | inactive | inactive | Non-toxic | Non-toxic | Non-toxic | inactive | inactive | inactive | inactive | inactive | inactive | Non-toxic | Activity [5]: inactive; Activity [8]: inactive; Activity [13]: Active; Activity [22]: inactive; Activity [27]: inactive; Activity [29]: Active
CCOC(=O)CN1C(=O)[C@H](c2ccccc2)N2CCCC[C@H]2C1=O | Non-toxic | inactive | inactive | Non-toxic | inactive | Non-toxic | Non-toxic | Non-toxic | inactive | inactive | Non-toxic | Non-toxic | Non-toxic | inactive | inactive | inactive | inactive | inactive | inactive | Non-toxic | Activity [5]: inactive; Time [32]: 0.25 h; Activity [8]: inactive; Activity [13]: Active; Activity [22]: Active; Activity [27]: inactive; ED50 [33]: 55.3 mg/kg; Activity [29]: Active
Cl.O=C1[C@H]2CCCCN2[C@H](c2ccccc2)C(=O)N1CCc1ccccc1 | Non-toxic | – | – | Non-toxic | – | Non-toxic | Non-toxic | Non-toxic | – | – | Non-toxic | Non-toxic | Non-toxic | – | – | – | – | – | – | Non-toxic | Time [32]: 0.25 h; ED50 [33]: 78.5 mg/kg
